In ChEMBL document CHEMBL3045391, “Synthesis and biological evaluation of 5,7-diaryl-4,4-dimethyl-4,5,6,7-tetrahydropyridino[3,4-d]-1,2,3-thiadiazoles” (2007):
Activity calls are given as the source filed them.

Tests used:
Nannizzia gypsea [1] = experiment: Antifungal activity against Microsporum gypseum at 500 ppm after 72 to 96 hr by disk diffusion method; type: functional; conditions: read-out: IZ
Streptococcus [2] = experiment: Antibacterial activity against beta-hemolytic Streptococcus at 500 ppm after 24 hr by disk diffusion method; type: functional; conditions: read-out: IZ
Streptococcus [3] = experiment: Antibacterial activity against beta-hemolytic Streptococcus at 200 ppm after 24 hr by disk diffusion method; type: functional; conditions: read-out: IZ
Salmonella typhi [4] = experiment: Antibacterial activity against Salmonella enterica subsp. enterica serovar Typhi at 100 ppm after 24 hr by disk diffusion method; type: functional; conditions: read-out: IZ
Streptococcus [5] = experiment: Antibacterial activity against beta-hemolytic Streptococcus at 100 ppm after 24 hr by disk diffusion method; type: functional, organism-based
Rhizopus [6] = experiment: Antifungal activity against Rhizopus at 500 ppm after 72 to 96 hr by disk diffusion method; type: functional; conditions: read-out: IZ
Aspergillus flavus [7] = experiment: Antifungal activity against Aspergillus flavus at 500 ppm after 72 to 96 hr by disk diffusion method; type: functional; conditions: read-out: IZ
Pseudomonas [8] = experiment: Antibacterial activity against Pseudomonas at 500 ppm after 24 hr by disk diffusion method; type: functional; conditions: read-out: IZ
Shigella flexneri [9] = experiment: Antibacterial activity against Shigella flexneri at 100 ppm after 24 hr by disk diffusion method; type: functional
Salmonella typhi [10] = experiment: Antibacterial activity against Salmonella enterica subsp. enterica serovar Typhi at 200 ppm after 24 hr by disk diffusion method; type: functional; conditions: read-out: IZ
Mucor [11] = experiment: Antifungal activity against Mucor at 100 ppm after 72 to 96 hr by disk diffusion method; type: functional
Vibrio cholerae [12] = experiment: Antibacterial activity against Vibrio cholerae at 200 ppm after 24 hr by disk diffusion method; type: functional; conditions: read-out: IZ
Escherichia coli [13] = experiment: Antibacterial activity against Escherichia coli at 200 ppm after 24 hr by disk diffusion method; type: functional; conditions: read-out: IZ
Shigella flexneri [14] = experiment: Antibacterial activity against Shigella flexneri at 200 ppm after 24 hr by disk diffusion method; type: functional; conditions: read-out: IZ
Salmonella typhi [15] = experiment: Antibacterial activity against Salmonella enterica subsp. enterica serovar Typhi at 500 ppm after 24 hr by disk diffusion method; type: functional; conditions: read-out: IZ
Staphylococcus aureus [16] = experiment: Antibacterial activity against Staphylococcus aureus at 100 ppm after 24 hr by disk diffusion method; type: functional
Escherichia coli [17] = experiment: Antibacterial activity against Escherichia coli at 100 ppm after 24 hr by disk diffusion method; type: functional, organism-based
Rhizopus [18] = experiment: Antifungal activity against Rhizopus at 100 ppm after 72 to 96 hr by disk diffusion method; type: functional; conditions: read-out: IZ
Shigella flexneri [19] = experiment: Antibacterial activity against Shigella flexneri at 500 ppm after 24 hr by disk diffusion method; type: functional; conditions: read-out: IZ
Klebsiella pneumoniae [20] = experiment: Antibacterial activity against Klebsiella pneumoniae at 200 ppm after 24 hr by disk diffusion method; type: functional; conditions: read-out: IZ
Nannizzia gypsea [21] = experiment: Antifungal activity against Microsporum gypseum at 100 ppm after 72 to 96 hr by disk diffusion method; type: functional; conditions: read-out: IZ
Vibrio cholerae [22] = experiment: Antibacterial activity against Vibrio cholerae at 500 ppm after 24 hr by disk diffusion method; type: functional; conditions: read-out: IZ
Aspergillus flavus [23] = experiment: Antifungal activity against Aspergillus flavus at 100 ppm after 72 to 96 hr by disk diffusion method; type: functional; conditions: read-out: IZ
Aspergillus flavus [24] = experiment: Antifungal activity against Aspergillus flavus at 200 ppm after 72 to 96 hr by disk diffusion method; type: functional; conditions: read-out: IZ
Rhizopus [25] = experiment: Antifungal activity against Rhizopus at 200 ppm after 72 to 96 hr by disk diffusion method; type: functional; conditions: read-out: IZ
Escherichia coli [26] = experiment: Antibacterial activity against Escherichia coli at 500 ppm after 24 hr by disk diffusion method; type: functional; conditions: read-out: IZ
Pseudomonas [27] = experiment: Antibacterial activity against Pseudomonas at 200 ppm after 24 hr by disk diffusion method; type: functional; conditions: read-out: IZ
Klebsiella pneumoniae [28] = experiment: Antibacterial activity against Klebsiella pneumoniae at 100 ppm after 24 hr by disk diffusion method; type: functional; conditions: read-out: IZ
Mucor [29] = experiment: Antifungal activity against Mucor at 200 ppm after 72 to 96 hr by disk diffusion method; type: functional; conditions: read-out: IZ
Klebsiella pneumoniae [30] = experiment: Antibacterial activity against Klebsiella pneumoniae at 500 ppm after 24 hr by disk diffusion method; type: functional; conditions: read-out: IZ
Pseudomonas [31] = experiment: Antibacterial activity against Pseudomonas at 100 ppm after 24 hr by disk diffusion method; type: functional
Mucor [32] = experiment: Antifungal activity against Mucor at 500 ppm after 72 to 96 hr by disk diffusion method; type: functional; conditions: read-out: IZ
Staphylococcus aureus [33] = experiment: Antibacterial activity against Staphylococcus aureus at 200 ppm after 24 hr by disk diffusion method; type: functional; conditions: read-out: IZ
Staphylococcus aureus [34] = experiment: Antibacterial activity against Staphylococcus aureus at 500 ppm after 24 hr by disk diffusion method; type: functional; conditions: read-out: IZ
Vibrio cholerae [35] = experiment: Antibacterial activity against Vibrio cholerae at 100 ppm after 24 hr by disk diffusion method; type: functional; conditions: read-out: IZ
Nannizzia gypsea [36] = experiment: Antifungal activity against Microsporum gypseum at 200 ppm after 72 to 96 hr by disk diffusion method; type: functional; conditions: read-out: IZ
Pseudomonas [37] = experiment: Antibacterial activity against Pseudomonas at 5 ug/disk after 24 hr by disk diffusion method; type: functional; conditions: read-out: IZ
Salmonella typhi [38] = experiment: Antibacterial activity against Salmonella enterica subsp. enterica serovar Typhi at 5 ug/disk after 24 hr by disk diffusion method; type: functional; conditions: read-out: IZ
Shigella flexneri [39] = experiment: Antibacterial activity against Shigella flexneri at 5 ug/disc after 24 hr by disk diffusion method; type: functional; conditions: read-out: IZ
Streptococcus [40] = experiment: Antibacterial activity against beta-hemolytic Streptococcus at 5 ug/disk after 24 hr by disk diffusion method; type: functional; conditions: read-out: IZ
Klebsiella pneumoniae [41] = experiment: Antibacterial activity against Klebsiella pneumoniae at 5 ug/disk after 24 hr by disk diffusion method; conditions: read-out: IZ
Staphylococcus aureus [42] = experiment: Antibacterial activity against Staphylococcus aureus at 5 ug/disc after 24 hr by disk diffusion method; conditions: read-out: IZ
Vibrio cholerae [43] = experiment: Antibacterial activity against Vibrio cholerae at 5 ug/disc after 24 hr by disk diffusion method; type: functional; conditions: read-out: IZ
Rhizopus [44] = experiment: Antifungal activity against Rhizopus at 100 units/disk after 72 to 96 hr by disk diffusion method; type: functional
Nannizzia gypsea [45] = experiment: Antifungal activity against Microsporum gypseum at 100 units/disc after 72 to 96 hr by disc diffusion method; type: functional
Mucor [46] = experiment: Antifungal activity against Mucor at 100 units/disk after 72 to 96 hr by disk diffusion method; type: functional
Aspergillus flavus [47] = experiment: Antifungal activity against Aspergillus flavus at 100 units/disk after 72 to 96 hr by disk diffusion method; type: functional

CC1(C)c2nnsc2C(c2ccccc2)NC1c1ccccc1 (stereo not drawn)
inactive: inhibition zone (IZ) (Streptococcus [5]) | inhibition zone (IZ) (Shigella flexneri [9]) | inhibition zone (IZ) (Mucor [11]) | inhibition zone (IZ) (Staphylococcus aureus [16]) | inhibition zone (IZ) (Escherichia coli [17])
22 mm: zone of inhibition at 500 ppm (Streptococcus [2]) | zone of inhibition at 500 ppm (Klebsiella pneumoniae [30]) | zone of inhibition at 500 ppm (Staphylococcus aureus [34])
12 mm: zone of inhibition at 200 ppm (Streptococcus [3]) | zone of inhibition at 100 ppm (Salmonella typhi [4]) | zone of inhibition at 500 ppm (Pseudomonas [8]) | zone of inhibition at 200 ppm (Salmonella typhi [10]) | zone of inhibition at 200 ppm (Vibrio cholerae [12]) | zone of inhibition at 200 ppm (Escherichia coli [13]) | zone of inhibition at 200 ppm (Shigella flexneri [14]) | zone of inhibition at 500 ppm (Salmonella typhi [15]) | zone of inhibition at 100 ppm (Rhizopus [18]) | zone of inhibition at 100 ppm (Nannizzia gypsea [21]) | zone of inhibition at 100 ppm (Aspergillus flavus [23]) | zone of inhibition at 200 ppm (Aspergillus flavus [24]) | zone of inhibition at 500 ppm (Escherichia coli [26]) | zone of inhibition at 200 ppm (Pseudomonas [27]) | zone of inhibition at 100 ppm (Klebsiella pneumoniae [28]) | zone of inhibition at 200 ppm (Mucor [29]) | zone of inhibition at 100 ppm (Pseudomonas [31]; read-out: IZ) | zone of inhibition at 100 ppm (Vibrio cholerae [35])
30 mm: zone of inhibition at 500 ppm (Nannizzia gypsea [1])
17 mm: zone of inhibition at 500 ppm (Rhizopus [6]) | zone of inhibition at 500 ppm (Aspergillus flavus [7]) | zone of inhibition at 500 ppm (Shigella flexneri [19]) | zone of inhibition at 200 ppm (Klebsiella pneumoniae [20]) | zone of inhibition at 500 ppm (Vibrio cholerae [22]) | zone of inhibition at 200 ppm (Rhizopus [25]) | zone of inhibition at 500 ppm (Mucor [32]) | zone of inhibition at 200 ppm (Staphylococcus aureus [33]) | zone of inhibition at 200 ppm (Nannizzia gypsea [36])

Cc1ccc(C2NC(c3ccc(C)cc3)C(C)(C)c3nnsc32)cc1 (stereo not drawn)
17 mm: zone of inhibition at 200 ppm (Streptococcus [3]) | zone of inhibition at 200 ppm (Vibrio cholerae [12]) | zone of inhibition at 200 ppm (Shigella flexneri [14]) | zone of inhibition at 500 ppm (Shigella flexneri [19]) | zone of inhibition at 200 ppm (Klebsiella pneumoniae [20]) | zone of inhibition at 100 ppm (Nannizzia gypsea [21]) | zone of inhibition at 500 ppm (Vibrio cholerae [22]) | zone of inhibition at 200 ppm (Rhizopus [25]) | zone of inhibition at 500 ppm (Escherichia coli [26]) | zone of inhibition at 100 ppm (Klebsiella pneumoniae [28]) | zone of inhibition at 200 ppm (Mucor [29]) | zone of inhibition at 500 ppm (Mucor [32])
22 mm: zone of inhibition at 500 ppm (Rhizopus [6]) | zone of inhibition at 500 ppm (Klebsiella pneumoniae [30]) | zone of inhibition at 200 ppm (Staphylococcus aureus [33]) | zone of inhibition at 200 ppm (Nannizzia gypsea [36])
12 mm: zone of inhibition at 100 ppm (Salmonella typhi [4]) | zone of inhibition at 500 ppm (Aspergillus flavus [7]) | zone of inhibition at 500 ppm (Pseudomonas [8]) | zone of inhibition at 100 ppm (Shigella flexneri [9]; read-out: IZ) | zone of inhibition at 200 ppm (Salmonella typhi [10]) | zone of inhibition at 200 ppm (Escherichia coli [13]) | zone of inhibition at 500 ppm (Salmonella typhi [15]) | zone of inhibition at 100 ppm (Rhizopus [18]) | zone of inhibition at 100 ppm (Aspergillus flavus [23]) | zone of inhibition at 200 ppm (Aspergillus flavus [24]) | zone of inhibition at 200 ppm (Pseudomonas [27]) | zone of inhibition at 100 ppm (Vibrio cholerae [35])
30 mm: zone of inhibition at 500 ppm (Nannizzia gypsea [1]) | zone of inhibition at 500 ppm (Streptococcus [2]) | zone of inhibition at 500 ppm (Staphylococcus aureus [34])
inactive: inhibition zone (IZ) (Streptococcus [5]) | inhibition zone (IZ) (Mucor [11]) | inhibition zone (IZ) (Staphylococcus aureus [16]) | inhibition zone (IZ) (Escherichia coli [17]) | inhibition zone (IZ) (Pseudomonas [31])

O=C(O)c1cn(C2CC2)c2cc(N3CCNCC3)c(F)cc2c1=O [CIPROFLOXACIN]
22 mm: zone of inhibition at 5 µg/disc (Salmonella typhi [38])
28 mm: zone of inhibition at 5 µg/disc (Streptococcus [40])
26 mm: zone of inhibition at 5 µg/disc (Klebsiella pneumoniae [41])
25 mm: zone of inhibition at 5 µg/disc (Staphylococcus aureus [42])
23 mm: zone of inhibition at 5 µg/disc (Pseudomonas [37]) | zone of inhibition at 5 µg/disc (Shigella flexneri [39]) | zone of inhibition at 5 µg/disc (Vibrio cholerae [43])

OC(Cn1cncn1)(Cn1cncn1)c1ccc(F)cc1F [FLUCONAZOLE]
20 mm: inhibition zone (IZ) (Rhizopus [44]) | inhibition zone (IZ) (Nannizzia gypsea [45]) | inhibition zone (IZ) (Mucor [46]) | inhibition zone (IZ) (Aspergillus flavus [47])
